Assay results from patent publication US12728121B2, “Compositions and methods for treating idiopathic pulmonary fibrosis” (Seyltx, Inc., priority 2019, dated 2026).

Key:
Format in all cases: in vivo, Mouse/C57BL/6
BLM-induced fibrosis [1] = assay: Bleomycin (BLM)-induced lung fibrosis in mice: mortality rate over 21 days; settings: doses as Table 1; for Fatality Number: deaths/mice per group over 21 days, Vehicle 2/10; for percent survival (in words): order: Dexamethasone and Repirinast, followed by Ifenprodil and Radiprodil; for Percent Fatality: over 21 days, Vehicle 20%
Description: (§1) The mouse species or strain was Mouse/C57BL/6, the mice being 8-10 week old males. Nine groups of 10 mice each were obtained from Charles River Laboratories. Each group was randomized based on body weight. Bleomycin (BLM) was obtained from Euroasias.
(§2) The mice were anesthetized with isoflurane/O2 mixture. Bleomycin (BLM) was then administered to the mice intratracheally (PennCentury)—single bolus, at 2.5 U/kg body weight in 50 μl sterile saline.
(§3) Seven days after the bleomycin is administered, and fibroblasts have generally proliferated, six of the nine groups of IT bleomycin challenged mice were be dosed orally (p.o.) once a day with Bromantane, Ifenoprodil, Radiprodil, Bemithyl, Dexamethasone, or Repirinast at specified amounts per kg of body weight (mg/kg) daily for 14 consecutive days. The amounts are set out in Table 1 below. The vehicle used was 0.5% carboxymethyl cellulose (CMC). Prifenidone was also prepared in 0.5% CMC and administrated orally once a day to one of the nine IT bleomycin challenged mice groups beginning for 14 consecutive days. Vehicle and no-BLM control groups received 0.5% CMC orally for 14 consecutive days.
Mortality Rate: the mortality rate in each group was also observed over 21 days.

[2] = Bleomycin (BLM)-induced lung fibrosis in mice: body weight over 21 days; settings: for Percent Change in Body Weight / Body Weight: doses as Table 1; for Body Weight: group mean; for changes in body weight as compared to the BLM-vehicle group (in words): doses as Table 1, p.o. once daily
Description: as §1, §2, §3
Body Weight: The body weights were measured over 21 days using a laboratory balance.

BLM-induced fibrosis [3] = assay: Bleomycin (BLM)-induced lung fibrosis in mice: Gomori's Trichrome score of lung sections; settings: for Trichrome score (average) / % reduction in fibrosis: day 21; for Trichrome score (average): BLM 2.5 U/kg intratracheal, p.o. once daily 14 days from day 7, mg/kg: Pirfenidone 300, Bromantane 20, Ifenoprodil 30, Radiprodil 30, Bemithyl 200, Dexamethasone 0.25, Repirinast 90, Normal 1.00, Vehicle 4.59; for Trichrome score response versus BLM-vehicle group (in words) / percent reduction in lung fibrosis in comparison to the BLM-vehicle group (in words): doses as Table 1, order: Dexamethasone and Repirinast, followed by Ifenprodil and Radiprodil; for % reduction in fibrosis: from Trichrome scores relative to vehicle and normal groups, doses as Table 1, p.o. once daily 14 days; for improvement in lung fibrosis, loss of body weight, Trichrome score and mortality as compared to BLM-vehicle (conclusion, in words): oral administration, Dexamethasone 0.25, Repirinast 90, Ifenprodil 30, Radiprodil 30 mg/kg
Description: as §1, §2, §3
On day 21 of the study, 4 hours after the last dose, the mice were sacrificed and plasma was collected and frozen for cytokine analysis (testing for IL-6, IL-12, TGFβ, IL-13 proteins, or fibrosis markers). Bronchoalveolar lavage fluid (BALF) was collected and frozen for optional cytokine analyses and cell counts pending the initial data. The lungs were then excised, weighed and fixed in formalin. Gomori's Trichrome stain, a histological stain, was used to determine collagen content.
Trichrome Score: A trichrome score measures the level of scarring to the lungs caused by the disease. The greater the trichrome score, the greater the scarring.
Formalin fixed lung samples were submitted to affiliated histopathology laboratory for histopathological analysis subjected Gomori's Trichrome stain, a histological stain, which was used to determine collagen content.
Each lung was divided into ten sections. All ten sections were stained and evaluated. A board certified veterinarian pathologist assessed the presence of lung fibrosis and severity score—The expression of collagen (associated with fibrosis) is determined from the ratio of the stained area versus the total area of the lung section.

Compound	Fatality Number (BLM-induced fibrosis [1])	Percent Fatality (BLM-induced fibrosis [1]) [%]	Percent Change in Body Weight ([2]; 7-Nov) [%]	Body Weight ([2]; 7-Nov) [g]	Percent Change in Body Weight ([2]; 8-Nov) [%]	Body Weight ([2]; 8-Nov) [g]	Percent Change in Body Weight ([2]; 9-Nov) [%]	Body Weight ([2]; 9-Nov) [g]	Percent Change in Body Weight ([2]; 12-Nov) [%]	Body Weight ([2]; 12-Nov) [g]	Percent Change in Body Weight ([2]; 14-Nov) [%]	Body Weight ([2]; 14-Nov) [g]	Percent Change in Body Weight ([2]; 16-Nov) [%]	Body Weight ([2]; 16-Nov) [g]	Percent Change in Body Weight ([2]; 20-Nov) [%]	Body Weight ([2]; 20-Nov) [g]	Percent Change in Body Weight ([2]; 22-Nov) [%]	Body Weight ([2]; 22-Nov) [g]	Percent Change in Body Weight ([2]; 26-Nov) [%]	Body Weight ([2]; 26-Nov) [g]	also measured
C[C@@H]1C[C@H]2[C@@H]3CCC4=CC(=O)C=C[C@]4(C)[C@@]3(F)[C@@H](O)C[C@]2(C)[C@@]1(O)C(=O)CO [Dexamethasone]	2/10	20	0.0	24.3	−0.2	24.1	−0.6	23.7	−1.9	22.4	−1.6	22.7	−0.9	23.4	−1.5	22.7	−0.1	24.2	0.3	24.5	percent survival (in words) (BLM-induced fibrosis [1]): higher; Percent Change in Body Weight ([2]; 28-Nov): 0.7%; Body Weight ([2]; 28-Nov): 25.0 g; changes in body weight as compared to the BLM-vehicle group (in words) [2]: showed improvement beginning on Day 5; Trichrome score (average) (BLM-induced fibrosis [3]): 2.45; Trichrome score response versus BLM-vehicle group (in words) (BLM-induced fibrosis [3]): response was better; percent reduction in lung fibrosis in comparison to the BLM-vehicle group (in words) (BLM-induced fibrosis [3]): higher; % reduction in fibrosis (BLM-induced fibrosis [3]): 59.6%; improvement in lung fibrosis, loss of body weight, Trichrome score and mortality as compared to BLM-vehicle (conclusion, in words) (BLM-induced fibrosis [3]): showed improvement
Cc1ccc(=O)n(-c2ccccc2)c1 [Pirfenidone (+), 5-methyl-1-phenylpyridin-2(1H)-one]	2/10	20	0.0	24.0	0.3	24.2	−0.5	23.5	−2.2	21.7	−2.9	21.0	−3.2	20.8	−3.7	20.3	−2.9	21.1	−3.1	20.9	Percent Change in Body Weight ([2]; 28-Nov): −3.2%; Body Weight ([2]; 28-Nov): 20.7 g; Trichrome score (average) (BLM-induced fibrosis [3]): 4.09; Trichrome score response versus BLM-vehicle group (in words) (BLM-induced fibrosis [3]): minimal improvement; % reduction in fibrosis (BLM-induced fibrosis [3]): 13.9%
O=C(Nc1ccc2[nH]c(=O)oc2c1)C(=O)N1CCC(Cc2ccc(F)cc2)CC1 [Radiprodil, 2-[4-[(4-fluorophenyl)methyl]piperidin-1-yl]-2-oxo-N-(2-oxo-3H-1,3-benzoxazol-6-yl)acetamide]	2/10	20	0.0	23.6	0.0	23.6	−0.4	23.2	−2.3	21.3	−1.8	21.8	−1.0	22.6	−1.2	22.4	−0.3	23.3	0.3	24.0	percent survival (in words) (BLM-induced fibrosis [1]): higher; Percent Change in Body Weight ([2]; 28-Nov): 0.4%; Body Weight ([2]; 28-Nov): 24.0 g; changes in body weight as compared to the BLM-vehicle group (in words) [2]: showed improvement beginning on Day 5; Trichrome score (average) (BLM-induced fibrosis [3]): 3.45; Trichrome score response versus BLM-vehicle group (in words) (BLM-induced fibrosis [3]): response was better; percent reduction in lung fibrosis in comparison to the BLM-vehicle group (in words) (BLM-induced fibrosis [3]): higher; % reduction in fibrosis (BLM-induced fibrosis [3]): 31.8%; improvement in lung fibrosis, loss of body weight, Trichrome score and mortality as compared to BLM-vehicle (conclusion, in words) (BLM-induced fibrosis [3]): showed improvement
